Source: US20230365592A1 (Agios Pharmaceuticals, Inc., priority 2022, published 2023)

Molecular target: T1, human PAH with the R408W mutation (Homo sapiens, UniProt P00439, R408W)
T1 construct: expressed in transfected cells
T1 sequence (P00439 1-452 R408W): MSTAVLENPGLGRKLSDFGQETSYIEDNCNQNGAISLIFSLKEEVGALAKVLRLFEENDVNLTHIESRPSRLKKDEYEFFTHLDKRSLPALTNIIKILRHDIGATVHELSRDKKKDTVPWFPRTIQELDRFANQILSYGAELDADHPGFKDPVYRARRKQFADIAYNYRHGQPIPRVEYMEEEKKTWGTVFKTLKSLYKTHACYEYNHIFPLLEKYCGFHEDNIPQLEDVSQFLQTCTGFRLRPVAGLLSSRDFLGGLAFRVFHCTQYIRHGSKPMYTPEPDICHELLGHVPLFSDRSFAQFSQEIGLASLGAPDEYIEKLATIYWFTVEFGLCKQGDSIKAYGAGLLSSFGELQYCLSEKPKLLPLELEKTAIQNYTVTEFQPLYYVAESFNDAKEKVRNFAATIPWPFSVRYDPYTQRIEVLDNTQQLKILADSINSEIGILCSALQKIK
Experiment: Cell Based Phenylalanine Flux Assay;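 further: after compound treatment, cells received sepiapterin plus isotope-labelled Phenylalanine for 4 hours, then labelled Tyrosine in the medium was quantified, 10-point 2-fold dilution series run in duplicate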
Settings: A375 cells expressing human R408W PAH; 24 hrs compound incubation; 13C-Tyrosine by LC-MS; average where tested multiple times; read-out: AC50

| AC50 [µM] | SMILES |
| --- | --- |
| < 0.5 | O=C(c1nnc(-c2cnn(C(F)F)c2)o1)N1CCc2[nH]cnc2[C@H]1c1cc2c(Cl)cccn2n1 [Example 1134, (S)-(4-(4-chloropyrazolo[1,5-a]pyridin-2-yl)-6,7-dihydro-1H-imidazo[4,5-c]pyridin-5(4H)-yl)(5-(1-(difluoromethyl)-1H-pyrazol-4-yl)-1,3,4-oxadiazol-2-yl)methanone] |
| 1 to 5 | O=C(c1nnc(-c2cnn(C(F)F)c2)o1)N1CCc2[nH]cnc2[C@@H]1c1cc2c(Cl)cccn2n1 [Example 1135, (R)-(4-(4-chloropyrazolo[1,5-a]pyridin-2-yl)-6,7-dihydro-1H-imidazo[4,5-c]pyridin-5(4H)-yl)(5-(1-(difluoromethyl)-1H-pyrazol-4-yl)-1,3,4-oxadiazol-2-yl)methanone] |
| < 0.5 | O=C(c1ccnn1C(F)F)N1CCc2[nH]cnc2[C@H]1c1cc2ccc(C(F)(F)F)cn2n1 [Example 1138, (S)-(1-(difluoromethyl)-1H-pyrazol-5-yl)(4-(6-(trifluoromethyl)pyrazolo[1,5-a]pyridin-2-yl)-6,7-dihydro-1H-imidazo[4,5-c]pyridin-5(4H)-yl)methanone] |
| 0.5 to 1 | O=C(c1nnc(C2CC2)o1)N1CCc2[nH]cnc2[C@H]1c1cc2cccc(C(F)(F)F)n2n1 [Example 1140, (S)-(5-cyclopropyl-1,3,4-oxadiazol-2-yl)(4-(7-(trifluoromethyl)pyrazolo[1,5-a]pyridin-2-yl)-6,7-dihydro-1H-imidazo[4,5-c]pyridin-5(4H)-yl)methanone] |
| < 0.5 | Cn1nc(Cl)nc1C(=O)N1CCc2[nH]cnc2[C@H]1c1cc2cccc(Cl)n2n1 [Example 1142, (S)-(3-chloro-1-methyl-1H-1,2,4-triazol-5-yl)(4-(7-chloropyrazolo[1,5-a]pyridin-2-yl)-6,7-dihydro-1H-imidazo[4,5-c]pyridin-5(4H)-yl)methanone] |
| 0.5 to 1 | Cn1ncnc1C(=O)N1CCc2[nH]cnc2[C@H]1c1cc2cccc(C(F)(F)F)n2n1 [Example 1144, (S)-(1-methyl-1H-1,2,4-triazol-5-yl)(4-(7-(trifluoromethyl)pyrazolo[1,5-a]pyridin-2-yl)-6,7-dihydro-1H-imidazo[4,5-c]pyridin-5(4H)-yl)methanone] |
| < 0.5 | Cc1cccc2cc([C@@H]3c4nc[nH]c4CCN3C(=O)c3ocnc3C(F)(F)F)nn12 [Example 1146, (S)-(4-(7-methylpyrazolo[1,5-a]pyridin-2-yl)-6,7-dihydro-1H-imidazo[4,5-c]pyridin-5(4H)-yl)(4-(trifluoromethyl)oxazol-5-yl)methanone] |
| 0.5 to 1 | Cc1ncoc1C(=O)N1CCc2[nH]cnc2[C@H]1c1cc2cccc(C)n2n1 [Example 1148, (S)-(4-methyloxazol-5-yl)(4-(7-methylpyrazolo[1,5-a]pyridin-2-yl)-6,7-dihydro-1H-imidazo[4,5-c]pyridin-5(4H)-yl)methanone] |
| 1 to 5 | Cc1ncoc1C(=O)N1CCc2[nH]cnc2[C@@H]1c1cc2cccc(C)n2n1 [Example 1149, (R)-(4-methyloxazol-5-yl)(4-(7-methylpyrazolo[1,5-a]pyridin-2-yl)-6,7-dihydro-1H-imidazo[4,5-c]pyridin-5(4H)-yl)methanone] |
| < 0.5 | Cc1cccc2cc([C@@H]3c4nc[nH]c4CCN3C(=O)c3oc(C(C)(C)O)nc3C(F)(F)F)nn12 [Example 1150, (S)-(2-(2-hydroxypropan-2-yl)-4-(trifluoromethyl)oxazol-5-yl)(4-(7-methylpyrazolo[1,5-a]pyridin-2-yl)-6,7-dihydro-1H-imidazo[4,5-c]pyridin-5(4H)-yl)methanone] |
| < 0.5 | Cc1cccc2cc([C@@H]3c4nc[nH]c4CCN3C(=O)c3oc([C@H](C)O)nc3C(F)F)nn12 [Example 1152, (4-(difluoromethyl)-2-((S)-1-hydroxyethyl)oxazol-5-yl)((S)-4-(7-methylpyrazolo[1,5-a]pyridin-2-yl)-6,7-dihydro-1H-imidazo[4,5-c]pyridin-5(4H)-yl)methanone] |
| < 0.5 | O=C(c1ocnc1C(F)F)N1CCc2[nH]cnc2[C@H]1c1cc2cccc(C(F)(F)F)n2n1 [Example 1154, (S)-(4-(difluoromethyl)oxazol-5-yl)(4-(7-(trifluoromethyl)pyrazolo[1,5-a]pyridin-2-yl)-6,7-dihydro-1H-imidazo[4,5-c]pyridin-5(4H)-yl)methanone] |
| < 0.5 | CC(C)(O)c1nc(C(F)F)c(C(=O)N2CCc3[nH]cnc3[C@H]2c2cc3cccc(C(F)(F)F)n3n2)o1 [Example 1156, (S)-(4-(difluoromethyl)-2-(2-hydroxypropan-2-yl)oxazol-5-yl)(4-(7-(trifluoromethyl)pyrazolo[1,5-a]pyridin-2-yl)-6,7-dihydro-1H-imidazo[4,5-c]pyridin-5(4H)-yl)methanone] |
| 0.5 to 1 | O=C(c1cnco1)N1CCc2[nH]cnc2[C@H]1c1cc2c(C(F)(F)F)cccn2n1 [Example 1158, (S)-oxazol-5-yl(4-(4-(trifluoromethyl)pyrazolo[1,5-a]pyridin-2-yl)-6,7-dihydro-1H-imidazo[4,5-c]pyridin-5(4H)-yl)methanone] |
| 1 to 5 | CC(C)(F)c1nnc(C(=O)N2CCc3[nH]cnc3[C@@H]2c2cc3cccc(C(F)(F)F)n3n2)o1 [Example 1160, (R)-(5-(2-fluoropropan-2-yl)-1,3,4-oxadiazol-2-yl)(4-(7-(trifluoromethyl)pyrazolo[1,5-a]pyridin-2-yl)-6,7-dihydro-1H-imidazo[4,5-c]pyridin-5(4H)-yl)methanone] |
| 0.5 to 1 | CC(C)(F)c1nnc(C(=O)N2CCc3[nH]cnc3[C@H]2c2cc3cccc(C(F)(F)F)n3n2)o1 [Example 1161, (S)-(5-(2-fluoropropan-2-yl)-1,3,4-oxadiazol-2-yl)(4-(7-(trifluoromethyl)pyrazolo[1,5-a]pyridin-2-yl)-6,7-dihydro-1H-imidazo[4,5-c]pyridin-5(4H)-yl)methanone] |
| < 0.5 | Cn1nc(Cl)nc1C(=O)N1CCc2[nH]cnc2[C@H]1c1cc2cccc(C(F)(F)F)n2n1 [Example 1162, (S)-(3-chloro-1-methyl-1H-1,2,4-triazol-5-yl)(4-(7-(trifluoromethyl)pyrazolo[1,5-a]pyridin-2-yl)-6,7-dihydro-1H-imidazo[4,5-c]pyridin-5(4H)-yl)methanone] |
| 1 to 5 | Cc1cccc2cc([C@H]3c4nc[nH]c4CCN3C(=O)c3oc([C@@H](C)O)nc3C(F)F)nn12 [Example 1165, (4-(difluoromethyl)-2-((R)-1-hydroxyethyl)oxazol-5-yl)((R)-4-(7-methylpyrazolo[1,5-a]pyridin-2-yl)-6,7-dihydro-1H-imidazo[4,5-c]pyridin-5(4H)-yl)methanone] |
| 0.5 to 1 | COc1cccn2nc([C@@H]3c4nc[nH]c4CCN3C(=O)c3cnco3)cc12 [Example 1166, (S)-(4-(4-methoxypyrazolo[1,5-a]pyridin-2-yl)-6,7-dihydro-1H-imidazo[4,5-c]pyridin-5(4H)-yl)(oxazol-5-yl)methanone] |
| 0.5 to 1 | COc1cccn2nc([C@@H]3c4nc[nH]c4CCN3C(=O)c3nnc(C4CC4)o3)cc12 [Example 1168, (S)-(5-cyclopropyl-1,3,4-oxadiazol-2-yl)(4-(4-methoxypyrazolo[1,5-a]pyridin-2-yl)-6,7-dihydro-1H-imidazo[4,5-c]pyridin-5(4H)-yl)methanone] |
| > 5 | COc1cccn2nc([C@H]3c4nc[nH]c4CCN3C(=O)c3nnc(C4CC4)o3)cc12 [Example 1169, (R)-(5-cyclopropyl-1,3,4-oxadiazol-2-yl)(4-(4-methoxypyrazolo[1,5-a]pyridin-2-yl)6,7-dihydro-1H-imidazo[4,5-c]pyridin-5(4H)-yl)methanone] |
| 0.5 to 1 | Cc1ccc2cc([C@@H]3c4nc[nH]c4CCN3C(=O)c3nnc(C(C)(C)F)o3)nn2c1 [Example 1171, (S)-(5-(2-fluoropropan-2-yl)-1,3,4-oxadiazol-2-yl)(4-(6-methylpyrazolo[1,5-a]pyridin-2-yl)-6,7-dihydro-1H-imidazo[4,5-c]pyridin-5(4H)-yl)methanone] |
| < 0.5 | O=C(c1ocnc1C(F)(F)F)N1CCc2[nH]cnc2[C@H]1c1cc2cccc(Cl)n2n1 [Example 1172, (S)-(4-(7-chloropyrazolo[1,5-a]pyridin-2-yl)-6,7-dihydro-1H-imidazo[4,5-c]pyridin-5(4H)-yl)(4-(trifluoromethyl)oxazol-5-yl)methanone] |
| 0.5 to 1 | Cc1ncoc1C(=O)N1CCc2[nH]cnc2[C@H]1c1cc2cccc(Cl)n2n1 [Example 1174, (S)-(4-(7-chloropyrazolo[1,5-a]pyridin-2-yl)-6,7-dihydro-1H-imidazo[4,5-c]pyridin-5(4H)-yl)(4-methyloxazol-5-yl)methanone] |
| < 0.5 | O=C(c1ocnc1C(F)(F)F)N1CCc2[nH]cnc2[C@H]1c1cc2cccc(C(F)(F)F)n2n1 [Example 1176, (S)-(4-(trifluoromethyl)oxazol-5-yl)(4-(7-(trifluoromethyl)pyrazolo[1,5-a]pyridin-2-yl)-6,7-dihydro-1H-imidazo[4,5-c]pyridin-5(4H)-yl)methanone] |
| < 0.5 | CC(C)(O)c1nc(C(F)(F)F)c(C(=O)N2CCc3[nH]cnc3[C@H]2c2cc3cccc(C(F)(F)F)n3n2)o1 [Example 1178, (S)-(2-(2-hydroxypropan-2-yl)-4-(trifluoromethyl)oxazol-5-yl)(4-(7-(trifluoromethyl)pyrazolo[1,5-a]pyridin-2-yl)-6,7-dihydro-1H-imidazo[4,5-c]pyridin-5(4H)-yl)methanone] |
